Converted amounts (≈) assume the structure as drawn. “And” between values parts separate entries of the source, which are not always exact repeats. Equal values may be shown once. “Also recorded” adds a separate entry of the source. Read-outs that look alike come from different tables or passages of the source. Marks after values point to notes of the source that are not given here.
Legend:
[1] = tested on: M. tuberculosis reference strain H37Rv; experiment: Survival under monotherapy in intravenous model (related to Study C); type: in vivo, Mycobacterium tuberculosis; details: intravenous model
M. tuberculosis H37Rv [2] = experiment: MIC90 determination, H37Rv; type: cell-based, Mycobacterium tuberculosis; details: Mycobacterium tuberculosis, H37RV; read-out: MIC90 (H37Rv)
H37Rv_CydBd-KO = experiment: microbe, parasite or virus in culture; type: cell-based, Mycobacterium tuberculosis; details: Mycobacterium tuberculosis
M. tuberculosis H37Rv [3] = experiment: MBC99.9 determination, H37Rv; type: cell-based, Mycobacterium tuberculosis; details: Mycobacterium tuberculosis, H37RV
H37Rv_CytBd-KO = experiment: microbe, parasite or virus in culture; type: cell-based, Mycobacterium tuberculosis; details: Mycobacterium tuberculosis; read-out: MBC99.9 (H37Rv_CytBd-KO)
WT H37Rv = type: cell-based, Mycobacterium tuberculosis; details: biological replicates
N1283 clinical isolate = type: cell-based, Mycobacterium tuberculosis; details: biological replicates
[4] = tested on: M. tuberculosis ΔcydAB (Parent); experiment: microbe, parasite or virus in culture; type: cell-based; details: Mycobacterium tuberculosis
[5] = type: in vitro ADME
Method: (§1) Details of the metabolic stability in liver microsomes and hepatocytes together with CYP inhibition in human liver microsomes and plasma protein binding have been published previously. The CYP induction assay was conducted by Puracyp Inc (www.puracyp.com). Studies were designed to evaluate the effect of compounds on the activation of human PXR (hPXR). The DPX2TM cells harbour the human PXR gene (NR1I2) and a luciferase reporter gene linked to two promoters identified in the human CYP3A4 gene, namely XREM and PXRE. These cells were seeded in a 96-well plate. Twenty-four hours after seeding, the cells were treated with various concentrations of compounds then incubated for an additional 24 h. Following this, the number of viable cells per well were determined using Promega’s CellTiter Fluor Cytotoxicity Assay. Briefly, One-Glo was added to the same wells and reporter gene activity was assessed. The luminescence light intensity was directly proportional to the extent of PXR activation and accompanying gene transcription in the DPX2TM cells.

human PXR (hPXR) = human PXR (hPXR) (Homo sapiens, UniProt O75469); type: in vitro ADME
Method: as §1

[6] = type: in vitro ADME; details: hepatocytes
3A4 = biological target: T1, 3A4 (Homo sapiens, UniProt P08684); type: in vitro ADME
T1 construct: from tissue; host or cells: human liver microsomes

2C19 = biological target: T2, 2C19 (Homo sapiens, UniProt P33261); type: in vitro ADME
T2 construct: from tissue; host or cells: human liver microsomes

2C8 = biological target: T3, 2C8 (Homo sapiens, UniProt P10632); type: in vitro ADME
T3 construct: from tissue; host or cells: human liver microsomes

2C9 = biological target: T4, 2C9 (Homo sapiens, UniProt P11712); type: in vitro ADME
T4 construct: from tissue; host or cells: human liver microsomes

2D6 = biological target: T5, 2D6 (Homo sapiens, UniProt P10635); type: in vitro ADME
T5 construct: from tissue; host or cells: human liver microsomes

1A2 = biological target: T6, 1A2 (Homo sapiens, UniProt P05177); type: in vitro ADME
T6 construct: from tissue; host or cells: human liver microsomes

HepG2 cells = details: human, 24 h
[7] = tested on: Salmonella typhimurium strains TA98 and TAMix
[8] = CD-1, mouse, in vivo
[9] = female, Balb/c, mouse, in vivo, po, 5 mg/kg
MDR-TB strains = details: cited from earlier work
[10] = tested on: M. tuberculosis cytochrome bd knockout (CytBd-KO) strain; parameters: method as in PMID 40191462; details: acute mouse model; cited from earlier work
in vivo [11] = details: CD-1, mouse; for half-life: t½
in vivo [12] = details: female, Balb/c, mouse, po, 5 mg/kg
in vitro [13] = details: human
in vitro [14] = details: human; remark: listed apart in the source

Sequence of human PXR (hPXR) (O75469 whole entry): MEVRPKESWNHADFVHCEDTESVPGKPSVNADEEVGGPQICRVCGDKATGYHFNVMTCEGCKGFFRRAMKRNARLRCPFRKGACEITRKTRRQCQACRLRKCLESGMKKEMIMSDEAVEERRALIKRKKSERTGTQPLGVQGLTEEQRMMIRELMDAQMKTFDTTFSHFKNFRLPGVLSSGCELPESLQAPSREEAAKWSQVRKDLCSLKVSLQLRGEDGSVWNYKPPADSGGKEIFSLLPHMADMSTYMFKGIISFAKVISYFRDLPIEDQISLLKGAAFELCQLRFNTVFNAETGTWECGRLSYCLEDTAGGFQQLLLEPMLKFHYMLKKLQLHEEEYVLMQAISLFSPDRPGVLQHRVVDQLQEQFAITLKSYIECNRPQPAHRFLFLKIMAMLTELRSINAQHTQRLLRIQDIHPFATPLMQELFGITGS
T1 sequence (P08684 whole entry): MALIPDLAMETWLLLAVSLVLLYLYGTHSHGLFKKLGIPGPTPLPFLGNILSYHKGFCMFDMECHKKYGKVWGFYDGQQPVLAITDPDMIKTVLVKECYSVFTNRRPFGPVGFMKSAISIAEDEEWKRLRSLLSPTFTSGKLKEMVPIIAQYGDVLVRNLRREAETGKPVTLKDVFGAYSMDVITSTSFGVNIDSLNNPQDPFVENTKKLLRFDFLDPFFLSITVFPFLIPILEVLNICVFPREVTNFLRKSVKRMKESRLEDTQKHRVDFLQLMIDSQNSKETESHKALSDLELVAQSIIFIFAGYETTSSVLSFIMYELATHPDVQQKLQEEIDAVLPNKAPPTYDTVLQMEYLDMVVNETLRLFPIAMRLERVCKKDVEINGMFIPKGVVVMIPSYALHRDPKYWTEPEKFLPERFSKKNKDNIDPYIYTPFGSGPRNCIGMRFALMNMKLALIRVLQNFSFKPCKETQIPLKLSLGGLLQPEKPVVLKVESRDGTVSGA
T3 sequence (P10632 whole entry): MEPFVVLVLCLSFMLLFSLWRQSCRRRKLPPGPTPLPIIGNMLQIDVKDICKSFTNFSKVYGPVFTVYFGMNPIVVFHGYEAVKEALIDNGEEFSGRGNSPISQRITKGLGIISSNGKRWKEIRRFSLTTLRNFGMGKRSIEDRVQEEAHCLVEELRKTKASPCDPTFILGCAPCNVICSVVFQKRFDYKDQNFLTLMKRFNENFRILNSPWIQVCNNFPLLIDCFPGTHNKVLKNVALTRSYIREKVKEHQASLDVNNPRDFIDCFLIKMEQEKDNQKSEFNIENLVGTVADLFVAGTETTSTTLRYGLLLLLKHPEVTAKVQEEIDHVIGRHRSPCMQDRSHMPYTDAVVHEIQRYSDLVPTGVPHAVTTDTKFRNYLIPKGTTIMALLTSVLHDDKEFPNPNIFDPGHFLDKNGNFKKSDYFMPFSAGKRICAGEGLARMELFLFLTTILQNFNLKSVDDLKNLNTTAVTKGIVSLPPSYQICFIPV
T6 sequence (P05177 whole entry): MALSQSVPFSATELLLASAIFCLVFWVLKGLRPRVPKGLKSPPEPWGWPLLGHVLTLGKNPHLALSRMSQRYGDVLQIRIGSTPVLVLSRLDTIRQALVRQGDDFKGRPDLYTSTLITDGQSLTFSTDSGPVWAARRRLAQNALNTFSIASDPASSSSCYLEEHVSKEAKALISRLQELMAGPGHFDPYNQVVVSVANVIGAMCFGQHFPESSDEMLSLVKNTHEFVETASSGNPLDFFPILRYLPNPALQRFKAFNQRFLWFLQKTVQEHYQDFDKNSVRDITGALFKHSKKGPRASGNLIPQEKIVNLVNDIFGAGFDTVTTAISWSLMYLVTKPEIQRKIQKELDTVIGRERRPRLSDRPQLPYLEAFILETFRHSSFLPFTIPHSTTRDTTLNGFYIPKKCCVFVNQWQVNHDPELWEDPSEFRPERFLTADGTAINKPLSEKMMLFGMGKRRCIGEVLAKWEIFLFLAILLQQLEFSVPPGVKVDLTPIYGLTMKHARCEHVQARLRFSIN
T2 sequence (P33261 whole entry): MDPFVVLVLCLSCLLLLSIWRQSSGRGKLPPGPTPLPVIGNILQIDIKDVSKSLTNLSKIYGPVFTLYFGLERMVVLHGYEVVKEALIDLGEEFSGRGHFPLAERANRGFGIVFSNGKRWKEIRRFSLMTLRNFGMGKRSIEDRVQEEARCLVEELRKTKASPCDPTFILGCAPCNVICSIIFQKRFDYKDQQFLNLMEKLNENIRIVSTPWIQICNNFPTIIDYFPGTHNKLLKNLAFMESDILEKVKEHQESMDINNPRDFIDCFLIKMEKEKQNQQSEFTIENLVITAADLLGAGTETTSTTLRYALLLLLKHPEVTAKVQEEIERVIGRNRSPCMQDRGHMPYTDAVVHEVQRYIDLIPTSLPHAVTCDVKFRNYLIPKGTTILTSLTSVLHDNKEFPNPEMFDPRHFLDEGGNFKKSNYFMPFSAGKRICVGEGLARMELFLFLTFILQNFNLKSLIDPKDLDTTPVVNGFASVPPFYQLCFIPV
T4 sequence (P11712 whole entry): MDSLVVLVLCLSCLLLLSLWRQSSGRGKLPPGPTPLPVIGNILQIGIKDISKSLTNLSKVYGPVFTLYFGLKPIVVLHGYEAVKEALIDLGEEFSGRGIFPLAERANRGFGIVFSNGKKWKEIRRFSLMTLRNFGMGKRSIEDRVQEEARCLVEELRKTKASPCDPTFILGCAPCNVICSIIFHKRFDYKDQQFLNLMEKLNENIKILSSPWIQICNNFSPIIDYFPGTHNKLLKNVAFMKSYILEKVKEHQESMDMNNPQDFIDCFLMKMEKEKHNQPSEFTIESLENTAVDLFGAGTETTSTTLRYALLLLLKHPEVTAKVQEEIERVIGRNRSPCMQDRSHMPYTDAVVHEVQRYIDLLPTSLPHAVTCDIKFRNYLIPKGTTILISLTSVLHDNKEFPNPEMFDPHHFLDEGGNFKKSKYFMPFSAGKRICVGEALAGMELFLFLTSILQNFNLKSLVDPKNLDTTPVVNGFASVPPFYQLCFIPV
T5 sequence (P10635 whole entry): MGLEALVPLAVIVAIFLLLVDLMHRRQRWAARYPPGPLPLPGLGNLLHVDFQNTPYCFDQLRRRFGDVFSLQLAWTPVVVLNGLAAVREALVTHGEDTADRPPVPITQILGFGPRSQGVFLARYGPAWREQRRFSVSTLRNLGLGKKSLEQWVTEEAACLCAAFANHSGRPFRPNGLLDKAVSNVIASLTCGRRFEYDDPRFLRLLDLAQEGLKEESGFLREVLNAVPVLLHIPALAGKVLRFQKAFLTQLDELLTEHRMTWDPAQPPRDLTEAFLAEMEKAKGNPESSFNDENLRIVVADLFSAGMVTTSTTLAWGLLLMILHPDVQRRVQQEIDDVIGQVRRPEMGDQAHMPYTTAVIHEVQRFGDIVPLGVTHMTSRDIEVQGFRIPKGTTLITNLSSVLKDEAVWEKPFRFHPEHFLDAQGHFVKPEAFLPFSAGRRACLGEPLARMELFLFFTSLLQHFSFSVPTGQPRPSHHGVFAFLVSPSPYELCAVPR

## CCc1nc2ccc(Cl)cn2c1C(=O)NCc1ccc(C2CC3(C2)CN(S(=O)(=O)C(F)(F)F)C3)cc1 [JNJ-2901]
[1]; monotherapy, read with the 1/0 flag of the same line (96 with flag 0), listed as J-901
  Day of death, individual mice: 16* and 20 and 54 and 26 and 77 and 82
[1]; six mice per group, treated for three months, 5 days per week, bedaquiline 25, moxifloxacin 100, JNJ-2901 10 mg kg-1
  Survival of mice under monotherapy: inability to rescue mice
M. tuberculosis H37Rv [2]
  MIC90: 0.009 µM (≈ 4.87 ng/mL)
H37Rv_CydBd-KO
  MIC90: 0.006 µM (≈ 3.25 ng/mL)
M. tuberculosis H37Rv [3]
  MBC: > 0.5 µM
H37Rv_CytBd-KO
  MBC: 0.015 µM (≈ 8.11 ng/mL)
WT H37Rv; Conc 8 nM
  CFU counts: 80000000 CFU and 35000000 CFU and 53000000 CFU and 30000000 CFU
WT H37Rv; Conc 32 nM
  CFU counts: 60000000 CFU and 30000000 CFU and 17000000 CFU and 12000000 CFU
WT H37Rv; Conc 128 nM
  CFU counts: 20000000 CFU and 14000000 CFU and 12000000 CFU
N1283 clinical isolate; Conc 8 nM
  CFU counts: 9000000 CFU and 800000 CFU and 200000 CFU
N1283 clinical isolate; Conc 32 nM
  CFU counts: 110000 CFU and 300000 CFU and 80000 CFU and 50000 CFU
N1283 clinical isolate; Conc 128 nM
  CFU counts: 20000 CFU and 50000 CFU and 90000 CFU and 80000 CFU
[4]
  MIC50: 0.01 µM (≈ 5.41 ng/mL)
[5]; hepatocytes
  Dog Hep Clint: 13 µL min-1 106 cells-1
  Human Hep Clint: 10 µL min-1 106 cells-1
  Rat Hep Clint: 16 µL min-1 106 cells-1
[5]; microsomes
  Dog LM Clint: 13.1 µL min-1 mg protein-1
  Human LM Clint: 63.3 µL min-1 mg protein-1
  Mouse LM Clint: 41.0 µL min-1 mg protein-1
  Rat LM Clint: 17.9 µL min-1 mg protein-1
Human PXR (hPXR); 1.25 µM
  Cyp3A4 ind. (%ctrl): 3.1 %ctrl
Human PXR (hPXR); 10 µM
  Cyp3A4 ind. (%ctrl): 11 %ctrl
[6]
  Mouse Hep Clint: 15 µL min-1 106 cells-1
3A4
  IC50: > 10 µM
2C19
  IC50: > 10 µM
2C8
  IC50: > 10 µM
2C9
  IC50: > 10 µM
2D6
  IC50: > 10 µM
1A2
  IC50: > 10 µM
HepG2 cells
  IC50: > 100 µM
[7]
  Mutagenicity (AMES II): negative
[8]; iv, 1 mg/kg
  CLp as % LBF: ~ 9 % LBF
[8]; female, po, 5 mg/kg
  AUC0-inf: 5287 ± 656 ng·h/mL
[9]
  AUC0-inf: 28500 ± 935 ng·h/mL
MDR-TB strains
  activity against MDR-TB strains: sub-nanomolar; also recorded: more active compared to lab-adapted strains
[10]
  reduction in bacterial burden: 4 log
In vivo [11]; iv, 1 mg/kg
  MRT: 9.1 ± 0.6 h
  Vd: 4.4 ± 0.8 L/kg
  clearance: 6.4 ± 1.6 mL/min/kg
  half-life: 12 ± 0.2 h
In vivo [11]; female, po, 5 mg/kg
  bioavailability: 70 ± 14%
  half-life: 10 h
In vivo [11]; female, po, 5 mg/kg, AUC0-inf
  AUC0-inf: 9500 ± 1850 ng·h/mL
In vivo [11]; female, po, 5 mg/kg, Cmax
  Cmax: 474 ± 29 ng/mL
In vivo [11]; female, po, 5 mg/kg, Tmax
  Tmax: 7 h
In vivo [12]
  Cmax: 2310 ± 767 ng/mL
In vivo [12]; AUC0-inf
  AUC0-inf: 38500 ng·h/mL
In vivo [12]; Cmax, Balb/c mouse, PO 5 mg kg-1, 0.5 w/v Methocel (susp.)
  Cmax: 2660 ± 469 ng/mL
In vivo [12]; t½
  half-life: 8.6 ± 2.8 h
In vitro [13]
  IC20 at 72 h: 11.8 µM
In vitro [14]
  IC50 at 24 h: > 100 µM
